From patent US20240246964A1 (Arbutus Biopharma Corporation, priority 2021, published 2024)

Experiments:
[1] = biological target: PD-L1 His protein / PD-1 Fc protein (Homo sapiens (Human), UniProt Q9NZQ7); test: HTRF Assay (PD-1/PD-L1 interaction); assay type: binding; settings: PD-L1 His 6 nM, PD-1 Fc 6 nM
human PD-L1 = human PD-L1 (Homo sapiens (Human), UniProt Q9NZQ7); test: T cell activation luciferase reporter cell culture system (T Cell Activation Assay); assay type: cell-based; settings: luciferase reporter assay; PD-L1 aAPC/CHO-K1 cells with PD-1 effector Jurkat T cells
Sequence of human PD-L1 (Q9NZQ7 19-290): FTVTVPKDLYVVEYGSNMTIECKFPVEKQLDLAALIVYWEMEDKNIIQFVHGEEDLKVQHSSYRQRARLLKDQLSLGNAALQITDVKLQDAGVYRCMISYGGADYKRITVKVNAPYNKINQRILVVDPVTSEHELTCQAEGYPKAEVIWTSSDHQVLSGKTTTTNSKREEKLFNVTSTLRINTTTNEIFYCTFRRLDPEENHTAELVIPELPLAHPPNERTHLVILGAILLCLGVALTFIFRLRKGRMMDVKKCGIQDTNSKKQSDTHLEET

Sequence of PD-L1 His protein / PD-1 Fc protein (Q9NZQ7 19-238): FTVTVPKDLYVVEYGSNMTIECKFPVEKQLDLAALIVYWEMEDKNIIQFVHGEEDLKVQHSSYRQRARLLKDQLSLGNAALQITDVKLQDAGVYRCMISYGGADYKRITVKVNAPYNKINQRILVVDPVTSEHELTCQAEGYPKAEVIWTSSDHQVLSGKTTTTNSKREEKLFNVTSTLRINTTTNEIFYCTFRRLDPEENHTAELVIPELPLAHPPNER

SMILES	IC50 [1] [nM]	EC50 (human PD-L1) [nM]
COc1cc(-c2cncc(-c3cccc(-c4ccc(CN5CC6(CNC(=O)C6)C5)c(OC)n4)c3Cl)c2Cl)ccc1CN1CC2(CNC(=O)C2)C1 [Compound 642, 2-(4-(4-Chloro-5-(2-chloro-3-(6-methoxy-5-((7-oxo-2,6-diazaspiro[3.4]octan-2-yl)methyl)pyridin-2-yl)phenyl)pyridin-3-yl)-2-methoxybenzyl)-2,6-diazaspiro[3.4]octan-7-one]	0.19	181
COc1nc(-c2cccc(-c3nccc(-c4ccc(CN5CC6(CNC(=O)C6)C5)c(OC)n4)c3Cl)c2Cl)ccc1CNC1CCN(C(C)=O)CC1 [Compound 680, 2-((2′-(3-(5-(((1-Acetylpiperidin-4-yl)amino)methyl)-6-methoxypyridin-2-yl)-2-chlorophenyl)-3′-chloro-6-methoxy-[2,4′-bipyridin]-5-yl)methyl)-2,6-diazaspiro[3.4]octan-7-one]	0.03	26.3
COc1nc(-c2cccc(-c3nccc(-c4ccc(CN5CC6(CNC(=O)C6)C5)c(OC)n4)c3Cl)c2Cl)ccc1CN1CCC(O)CC1 [Compound 681, 2-((3′-Chloro-2′-(2-chloro-3-(5-((4-hydroxypiperidin-1-yl)methyl)-6-methoxypyridin-2-yl)phenyl)-6-methoxy-[2,4′-bipyridin]-5-yl)methyl)-2,6-diazaspiro[3.4]octan-7-one]	1.07	23.4
COc1nc(-c2cccc(-c3nccc(-c4ccc(CNC5CCN(C(C)=O)CC5)c(OC)n4)c3Cl)c2Cl)ccc1CN1CC2(CNC(=O)C2)C1 [Compound 682, 2-((6-(3-(5-(((1-Acetylpiperidin-4-yl)amino)methyl)-3′-chloro-6-methoxy-[2,4′-bipyridin]-2′-yl)-2-chlorophenyl)-2-methoxypyridin-3-yl)methyl)-2,6-diazaspiro[3.4]octan-7-one]	0.17	24.6
COc1cc(-c2ncnc(-c3cccc(NC(=O)c4cn(C)c(=O)n(C)c4=O)c3Cl)c2Cl)ccc1CNC[C@@H]1CCC(=O)N1 [Compound 708, (S)—N-(2-Chloro-3-(5-chloro-6-(3-methoxy-4-((((5-oxopyrrolidin-2-yl)methyl)amino)methyl)phenyl)pyrimidin-4-yl)phenyl)-1,3-dimethyl-2,4-dioxo-1,2,3,4-tetrahydropyrimidine-5-carboxamide]	0.29	1320
COc1nc(-c2ccnc(-c3cccc(NC(=O)c4cn(C)c(=O)n(C)c4=O)c3Cl)c2Cl)ccc1CNC1CCN(C(C)=O)CC1 [Compound 721, N-(3-(5-(((1-Acetylpiperidin-4-yl)amino)methyl)-3′-chloro-6-methoxy-[2,4′-bipyridin]-2′-yl)-2-chlorophenyl)-1,3-dimethyl-2,4-dioxo-1,2,3,4-tetrahydropyrimidine-5-carboxamide]	0.7	1320
COc1nc(-c2ccnc(-c3cccc(NC(=O)c4cn(C)c(=O)n(C)c4=O)c3Cl)c2Cl)ccc1CN1CC2(C1)CN(C(C)=O)C2 [Compound 731, N-(3-(5-((6-Acetyl-2,6-diazaspiro[3.3]heptan-2-yl)methyl)-3′-chloro-6-methoxy-[2,4′-bipyridin]-2′-yl)-2-chlorophenyl)-1,3-dimethyl-2,4-dioxo-1,2,3,4-tetrahydropyrimidine-5-carboxamide]	0.9	1170
COc1nc(-c2ccnc(-c3cccc(NC(=O)c4cn(C)c(=O)n(C)c4=O)c3Cl)c2Cl)ccc1CNC[C@H](C)O [Compound 745, (S)—N-(2-Chloro-3-(3′-chloro-5-(((2-hydroxypropyl)amino)methyl)-6-methoxy-[2,4′-bipyridin]-2′-yl)phenyl)-1,3-dimethyl-2,4-dioxo-1,2,3,4-tetrahydropyrimidine-5-carboxamide]	0.31	372
COc1cc(-c2ncnc(-c3cccc(NC(=O)c4cn(C)c(=O)n(C)c4=O)c3Cl)c2Cl)ccc1CNC[C@H](C)O [Compound 746, (S)—N-(2-Chloro-3-(5-chloro-6-(4-(((2-hydroxypropyl)amino)methyl)-3-methoxyphenyl)pyrimidin-4-yl)phenyl)-1,3-dimethyl-2,4-dioxo-1,2,3,4-tetrahydropyrimidine-5-carboxamide]	1.29	2080
COc1nc(-c2cccc(-c3ccnc(-c4cc(OC)c5nc(CN6CC7(CC(O)C7)C6)nn5c4)c3Cl)c2Cl)ccc1CNC(C)C [Compound 753, 2-((6-(3-Chloro-4-(2-chloro-3-(5-((isopropylamino)methyl)-6-methoxypyridin-2-yl)phenyl)pyridin-2-yl)-8-methoxy-[1,2,4]triazolo[1,5-a]pyridin-2-yl)methyl)-2-azaspiro[3.3]heptan-6-ol]	0.2	87
COc1nc(-c2cccc(-c3ccnc(-c4cc(OC)c5nc(CN[C@H]6CC[C@H](O)CC6)nn5c4)c3Cl)c2Cl)ccc1CNC(C)C [Compound 758, (1r,4r)-4-(((6-(3-Chloro-4-(2-chloro-3-(5-((isopropylamino)methyl)-6-methoxypyridin-2-yl)phenyl)pyridin-2-yl)-8-methoxy-[1,2,4]triazolo[1,5-a]pyridin-2-yl)methyl)amino)cyclohexanol]	0.24	354
COc1nc(-c2cccc(-c3ccnc(-c4cc(OC)c5nc(CNC(C)C)nn5c4)c3Cl)c2Cl)ccc1CNC(C)C [Compound 763, N-((6-(2-chloro-3-(3-chloro-2-(2-((isopropylamino)methyl)-8-methoxy-[1,2,4]triazolo[1,5-a]pyridin-6-yl)pyridin-4-yl)phenyl)-2-methoxypyridin-3-yl)methyl)propan-2-amine]	0.25	650
COc1nc(-c2cccc(-c3ccnc(-c4cc(OC)c5nc(CNC[C@@H]6CCC(=O)N6)nn5c4)c3Cl)c2Cl)ccc1CNC(C)C [Compound 764, (S)-5-((((6-(3-chloro-4-(2-chloro-3-(5-((isopropylamino)methyl)-6-methoxypyridin-2-yl)phenyl)pyridin-2-yl)-8-methoxy-[1,2,4]triazolo[1,5-a]pyridin-2-yl)methyl)amino)methyl)pyrrolidin-2-one]	0.56	865
COc1nc(-c2cccc(-c3ccnc(-c4cc(OC)c5nc(CNC6CCN(C(C)=O)CC6)nn5c4)c3Cl)c2Cl)ccc1CNC(C)C [Compound 765, 1-(4-(((6-(3-Chloro-4-(2-chloro-3-(5-((isopropylamino)methyl)-6-methoxypyridin-2-yl)phenyl)pyridin-2-yl)-8-methoxy-[1,2,4]triazolo[1,5-a]pyridin-2-yl)methyl)amino)piperidin-1-yl)ethan-1-one]	0.28	1280
COc1nc(-c2cccc(-c3ccnc(-c4cc(OC)c5nc(CN6CC7(C6)CN(C(C)=O)C7)nn5c4)c3Cl)c2Cl)ccc1CNC(C)C [Compound 767, 1-(6-((6-(3-Chloro-4-(2-chloro-3-(5-((isopropylamino)methyl)-6-methoxypyridin-2-yl)phenyl)pyridin-2-yl)-8-methoxy-[1,2,4]triazolo[1,5-a]pyridin-2-yl)methyl)-2,6-diazaspiro[3.3]heptan-2-yl)ethan-1-one]	0.24	92.1
COc1nc(-c2cccc(-c3ccnc(-c4cc5c(=O)n(C)c(CN6CC(C)(O)C6)nn5c4)c3Cl)c2Cl)ccc1CN1CC(C)(O)C1 [Example 231, 6-(3-Chloro-4-(2-chloro-3-(5-((3-hydroxy-3-methylazetidin-1-yl)methyl)-6-methoxypyridin-2-yl)phenyl)pyridin-2-yl)-2-((3-hydroxy-3-methylazetidin-1-yl)methyl)-3-methylpyrrolo[2,1-f][1,2,4]triazin-4(3H)-one]	3.53	105
COc1cc(-c2nccc(-c3cccc(-c4ccc(CNC5CCN(C(C)=O)CC5)c(OC)n4)c3Cl)c2Cl)ccc1CN1CC[C@H](C(=O)O)C1 [Example 239, (S)-1-(4-(4-(3-(5-(((1-acetylpiperidin-4-yl)amino)methyl)-6-methoxypyridin-2-yl)-2-chlorophenyl)-3-chloropyridin-2-yl)-2-methoxybenzyl)pyrrolidine-3-carboxylic acid]	0.19	161
COc1cc(-c2nccc(-c3cccc(-c4ccc5c(OC)c(CNC6CCN(C(C)=O)CC6)cc(Cl)c5n4)c3Cl)c2Cl)ccc1CNC[C@@H]1CCC(=O)N1 [Example 241, (S)-5-(((4-(4-(3-(6-(((1-Acetylpiperidin-4-yl)amino)methyl)-8-chloro-5-methoxyquinolin-2-yl)-2-chlorophenyl)-3-chloropyridin-2-yl)-2-methoxybenzyl)amino)methyl)pyrrolidin-2-one]	14.3	≥ 10000
COc1nc(-c2cccc(-c3ccnc(-c4ccc5c(CN(C)CCO)nn(C)c5c4)c3Cl)c2Cl)ccc1CNC[C@@H]1CCC(=O)N1 [Example 247, (S)-5-((((6-(2-Chloro-3-(3-chloro-2-(3-(((2-hydroxyethyl)(methyl)amino)methyl)-1-methyl-1H-indazol-6-yl)pyridin-4-yl)phenyl)-2-methoxypyridin-3-yl)methyl)amino)methyl)pyrrolidin-2-one]	6.74	52.4
COc1nc(-c2ccnc(-c3cccc4c3CC[C@@H]4Oc3nc(OC)c(CNC4CCN(C(C)=O)CC4)cc3C(F)(F)F)c2Cl)ccc1CNC1CCN(C(C)=O)CC1 [Example 254, (S)-1-(4-(((6-((4-(5-(((1-Acetylpiperidin-4-yl)amino)methyl)-3′-chloro-6-methoxy-[2,4′-bipyridin]-2′-yl)-2,3-dihydro-1H-inden-1-yl)oxy)-2-methoxy-5-(trifluoromethyl)pyridin-3-yl)methyl)amino)piperidin-1-yl)ethan-1-one]	94.3	148
COc1nc(-c2cccc(-c3ccnc(-c4ccc5c(CNC6CCN(C(C)=O)CC6)nn(C)c5c4)c3Cl)c2Cl)ccc1CNC1CCN(C(C)=O)CC1 [Example 263, 1-(4-(((6-(3-(2-(3-(((1-Acetylpiperidin-4-yl)amino)methyl)-1-methyl-1H-indazol-6-yl)-3-chloropyridin-4-yl)-2-chlorophenyl)-2-methoxypyridin-3-yl)methyl)amino)piperidin-1-yl)ethan-1-one]	1.71	≥ 10000
